According to patent US10647721B2, “Bicyclic heteroaryl derivatives” (Hoffmann-La Roche Inc., priority 2016, dated 2020):

System: γ-secretase
Assay: Cellular γ-secretase assay (inhibition of Aβ42 secretion, AlphaLisa)
Assay type: cell-based
Conditions: human neuroglioma H4 cells overexpressing human APP695 Swedish double mutation, 24 hr compound incubation
Procedure: Cellular γ-Secretase Assay
Human neuroglioma H4 cells overexpressing human APP695 with the Swedish double mutation (K595N/M596L) were plated at 30,000 cells/well/100 μl in 96-well plates in IMDM media containing 10% FCS, 0.2 mg/l Hygromycin B and incubated at 37° C., 5% CO2.
3-4 hr post plating, compounds are a diluted in media and 50 μl is added as 1.5-fold concentrate to achieve the final concentration. Compound incubation is performed for 24 hr. Final doses typically range from 4 μm down to 0.0013 μm in half-log steps resulting in a eight point dose response curve.
Appropriate controls using vehicle only and reference compound were applied to this assay. The final concentration of Me2SO was 0.4%.
After incubation at 37° C., 5% CO2, the supernatant was subjected to quantification of secreted Aβ42 by the means of an AlphaLisa assay kit (Human Amyloid beta 1-42 Kit: Cat # AL203C, Perkin Elmer). 20 μl of the cell culture supernatant was transferred to an assay plate. Then 10 μl of a mixture of the AlphaLisa coupled capture antibody and the biotinylated detection antibody was added and incubated for 3 hours at room temperature while softly shaking the assay plate. After a further addition of 20 μl of the Donor beads the assay plate was incubated for 30 min at room temperature and constant shaking without exposure to direct light. The assay plate was then read on a Paradigm AlphaLisa Reader using the build-in program with excitation at 680 nm and emission at […].
The measured signals were then used to calculate IC50 values for inhibition of Aβ42 secretion by nonlinear regression fit analysis using XLfit 5.3 software (IDBS).

| SMILES | EC50 [nM] |
| --- | --- |
| Cc1ncn(-c2ccc(Nc3nc4n(n3)CCCN4c3ccc(F)c(F)c3)cc2OC(F)F)n1 [Example 1, N-[3-(difluoromethoxy)-4-(3-methyl-1,2,4-triazol-1-yl)phenyl]-4-(3,4-difluorophenyl)-6,7-dihydro-5H-[1,2,4]triazolo[1,5-a]pyrimidin-2-amine] | 16.6 |
| COc1cc(Nc2nc3n(n2)CCCN3c2ccc(F)c(F)c2)ccc1-n1cnc(C)n1 [Example 2, 4-(3,4-difluorophenyl)-N-[3-methoxy-4-(3-methyl-1,2,4-triazol-1-yl)phenyl]-6,7-dihydro-5H-[1,2,4]triazolo[1,5-a]pyrimidin-2-amine] | 14.2 |
| COc1cc(Nc2nc3n(n2)CCCN3c2ccc(F)c(F)c2)ccc1-n1cnc(C(F)(F)F)c1 [Example 3, 4-(3,4-difluorophenyl)-N-[3-methoxy-4-[4-(trifluoromethyl)imidazol-1-yl]phenyl]-6,7-dihydro-5H-[1,2,4]triazolo[1,5-a]pyrimidin-2-amine] | 37 |
| COc1cc(Nc2nc3n(n2)CCCN3c2ccc(F)c(F)c2)ccc1-c1cnc(C)o1 [Example 4, 4-(3,4-difluorophenyl)-N-[3-methoxy-4-(2-methyloxazol-5-yl)phenyl]-6,7-dihydro-5H-[1,2,4]triazolo[1,5-a]pyrimidin-2-amine] | 14.3 |
| COc1cc(Nc2nc3n(n2)CCCN3c2ccc(F)c(F)c2)cnc1-n1cnc(Cl)c1 [Example 5, N-[6-(4-chloroimidazol-1-yl)-5-methoxy-3-pyridyl]-4-(3,4-difluorophenyl)-6,7-dihydro-5H-[1,2,4]triazolo[1,5-a]pyrimidin-2-amine] | 21.4 |
| COc1cc(Nc2nc3n(n2)CCCN3c2ccc(F)c(F)c2)ccc1-n1cnc(Cl)c1 [Example 6, N-[4-(4-chloroimidazol-1-yl)-3-methoxy-phenyl]-4-(3,4-difluorophenyl)-6,7-dihydro-5H-[1,2,4]triazolo[1,5-a]pyrimidin-2-amine] | 8.3 |
| COc1cc(Nc2nc3n(n2)CCCCN3c2ccc(F)c(F)c2)ccc1-c1cnc(C)o1 [Example 7, 4-(3,4-difluorophenyl)-N-[3-methoxy-4-(2-methyloxazol-5-yl)phenyl]-5,6,7,8-tetrahydro-[1,2,4]triazolo[1,5-a][1,3]diazepin-2-amine] | 13.2 |
| COc1cc(Nc2nc3n(n2)CCCCN3c2ccc(F)c(F)c2)ccc1-n1cnc(C)n1 [Example 8, 4-(3,4-difluorophenyl)-N-[3-methoxy-4-(3-methyl-1,2,4-triazol-1-yl)phenyl]-5,6,7,8-tetrahydro-[1,2,4]triazolo[1,5-a][1,3]diazepin-2-amine] | 35.8 |
| COc1cc(Nc2nc3n(n2)CCCCN3c2ccc(F)c(F)c2)ccc1-n1cnc(Cl)c1 [Example 9, N-[4-(4-chloroimidazol-1-yl)-3-methoxy-phenyl]-4-(3,4-difluorophenyl)-5,6,7,8-tetrahydro-[1,2,4]triazolo[1,5-a][1,3]diazepin-2-amine] | 22.4 |
| COc1cc(Nc2nc3n(n2)CCCCN3c2ccc(F)c(F)c2)ccc1-n1cnc(C(F)(F)F)c1 [Example 10, 4-(3,4-difluorophenyl)-N-[3-methoxy-4-[4-(trifluoromethyl)imidazol-1-yl]phenyl]-5,6,7,8-tetrahydro-[1,2,4]triazolo[1,5-a][1,3]diazepin-2-amine] | 61.9 |
| Cc1ncn(-c2ccc(Nc3nc4n(n3)CCCN4c3ccc(F)c(F)c3)cc2F)n1 [Example 11, 4-(3,4-difluorophenyl)-N-[3-fluoro-4-(3-methyl-1,2,4-triazol-1-yl)phenyl]-6,7-dihydro-5H-[1,2,4]triazolo[1,5-a]pyrimidin-2-amine] | 34.5 |
| COc1cc(Nc2nc3n(n2)CCCN3c2ccc(F)c(F)c2)ccc1-n1cnc(Cl)n1 [Example 12, N-[4-(3-chloro-1,2,4-triazol-1-yl)-3-methoxy-phenyl]-4-(3,4-difluorophenyl)-6,7-dihydro-5H-[1,2,4]triazolo[1,5-a]pyrimidin-2-amine] | 29.8 |
| Cc1ncnn1-c1ccc(Nc2nc3n(n2)CCCN3c2ccc(F)c(F)c2)cc1F [Example 13, 4-(3,4-difluorophenyl)-N-[3-fluoro-4-(5-methyl-1,2,4-triazol-1-yl)phenyl]-6,7-dihydro-5H-[1,2,4]triazolo[1,5-a]pyrimidin-2-amine] | 24.8 |
| Fc1ccc(N2CCCn3nc(Nc4ccc(-n5cncn5)c(F)c4)nc32)cc1F [Example 14, 4-(3,4-difluorophenyl)-N-[3-fluoro-4-(1,2,4-triazol-1-yl)phenyl]-6,7-dihydro-5H-[1,2,4]triazolo[1,5-a]pyrimidin-2-amine] | 89.9 |
| COc1cc(Nc2nc3n(n2)CCCN3c2ccc(F)c(F)c2F)ccc1-c1cnc(C)o1 [Example 15, N-[3-methoxy-4-(2-methyloxazol-5-yl)phenyl]-4-(2,3,4-trifluorophenyl)-6,7-dihydro-5H-[1,2,4]triazolo[1,5-a]pyrimidin-2-amine] | 14.4 |
| COc1cc(Nc2nc3n(n2)CCCN3c2ccc(F)c(F)c2F)ccc1-n1cnc(C)n1 [Example 16, N-[3-methoxy-4-(3-methyl-1,2,4-triazol-1-yl)phenyl]-4-(2,3,4-trifluorophenyl)-6,7-dihydro-5H-[1,2,4]triazolo[1,5-a]pyrimidin-2-amine] | 32.9 |
| COc1cc(Nc2nc3n(n2)CCCN3c2ccc(F)c(F)c2F)ccc1-n1cnc(Cl)c1 [Example 17, N-[4-(4-chloroimidazol-1-yl)-3-methoxy-phenyl]-4-(2,3,4-trifluorophenyl)-6,7-dihydro-5H-[1,2,4]triazolo[1,5-a]pyrimidin-2-amine] | 13 |
| Fc1ccc(N2CCCn3nc(Nc4ccc(-n5cnc(Cl)c5)c(F)c4)nc32)cc1F [Example 18, N-[4-(4-chloroimidazol-1-yl)-3-fluoro-phenyl]-4-(3,4-difluorophenyl)-6,7-dihydro-5H-[1,2,4]triazolo[1,5-a]pyrimidin-2-amine] | 22.5 |
| Cc1ncc(-c2ccc(Nc3nc4n(n3)CCCN4c3ccc(F)c(F)c3)cc2F)o1 [Example 19, 4-(3,4-difluorophenyl)-N-[3-fluoro-4-(2-methyloxazol-5-yl)phenyl]-6,7-dihydro-5H-[1,2,4]triazolo[1,5-a]pyrimidin-2-amine] | 20.4 |
| COc1cc(Nc2nc3n(n2)CCCN3c2ccc(F)c(F)c2)ccc1-c1cnn(C)c1 [Example 20, 4-(3,4-difluorophenyl)-N-[3-methoxy-4-(1-methylpyrazol-4-yl)phenyl]-6,7-dihydro-5H-[1,2,4]triazolo[1,5-a]pyrimidin-2-amine] | 28.9 |
| Fc1ccc(N2CCCn3nc(Nc4ccc(-n5cnc(Cl)n5)c(F)c4)nc32)cc1F [Example 21, N-[4-(3-chloro-1,2,4-triazol-1-yl)-3-fluoro-phenyl]-4-(3,4-difluorophenyl)-6,7-dihydro-5H-[1,2,4]triazolo[1,5-a]pyrimidin-2-amine] | 102 |
| Cc1ncc(-c2ccc(Nc3nc4n(n3)CCCN4c3ccc(F)c(F)c3)cc2)o1 [Example 22, 4-(3,4-difluorophenyl)-N-[4-(2-methyloxazol-5-yl)phenyl]-6,7-dihydro-5H-[1,2,4]triazolo[1,5-a]pyrimidin-2-amine] | 19.8 |
| Fc1ccc(N2CCCn3nc(Nc4ccc(-n5cnc(Cl)c5)cc4)nc32)cc1F [Example 23, N-[4-(4-chloroimidazol-1-yl)phenyl]-4-(3,4-difluorophenyl)-6,7-dihydro-5H-[1,2,4]triazolo[1,5-a]pyrimidin-2-amine] | 31.2 |
